Assay: Full RFB cell cycling, anolyte-limiting, BTMAP-Fc catholyte
Conditions: for capacity decay in RFB cycling: anolyte-limiting
Method: The RFB measurements were carried out in a custom-made zero-gap device previously reported by Li et al. (Li, W. et al., Chem 2018, 4 (11), 2644-2657; and Li, W. et al., Adv. Energy Mater. 2019, 9 (31), 1900918.) Both symmetric flow cell and RFB full cell measurements were conducted using a Bio-Logic SP-200 potentiostat at room temperature (˜20° C.). In symmetric cells, 0.1 M of active species in 1 M NaCl (pre-charged to 50% SOC of the first electron reduction using FcNCl as the counter cathode in bulk electrolysis) was utilized on both sides with the capacity limiting side (CLS) consisting of 5 mL of solution and the non-capacity limiting side (NCLS) consisting of 10 mL of solution separated by a Selemion AMV anion-exchange membrane (Asahi Glass Co.). The neat Dex-Vi full RFB cell cycling was performed using the product from the Dex-Vi synthesis directly without any purification. The neat product was diluted to roughly 0.1 M to pair with a 0.2 M BTMAP-Fc counter catholyte in excess capacity separated by an AMV membrane. Both the anolyte and catholyte were 5 mL in total volume with 0.5 M NaCl supporting electrolyte. The first electron high concentration Dex-Vi RFB full cell cycling was performed using 5 mL of 1.5 M Dex-Vi as the anolyte and 10 mL 0.75 M BTMAP-Fc as the catholyte, both of which were prepared in pure water without any supporting salt, with a DSV anion-exchange membrane. The second-electron high concentration full cell cycling was performed using 5 mL of 1.5 M Dex-Vi in water as the anolyte, 20 mL of 0.75 M BTMAP-Fc in water as the catholyte, and a DSV anion-exchange membrane. Rate performance was investigated using 0.1 M Dex-Vi anolyte and 0.2 M BTMAP-Fc catholyte both in 1 M NaCl with DSV anion-exchange membrane.
Graphite plates (⅛-inch thickness, MWI Inc.) with a 20×20×1.2 mm pocket were used as current collectors for RFB devices. 4 cm^2 graphite felt electrodes (GFD 3 EA, […]®) were pre-treated at 400° C. in air for 6 hr before being used on both sides of the cell. 25×25 mm Selemion AMV or DSV was presoaked in 1.0 M NaCl for more than 24 hr before it was used as an anion-exchange membrane. The cell was assembled with four pieces of die cut PTFE sheets (0.04-inch thickness) as gaskets and tightened with eight #10-24 bolts. The electrolytes were pumped through the flow channels by a peristaltic pump (Cole-Parmer Masterflex L/S) via PharMed BPT tubing. The electrolyte flow rate was controlled at 20 mL·min^−1 for all RFB measurements. 10 mL custom made glass vials with two 4 mm OD electrolyte inlet/out arms were used as electrolyte reservoirs. […]

In the case of C[N+](C)(C)CC(O)C[n+]1ccc(-c2cc[n+](CC(O)C[N+](C)(C)C)cc2)cc1 (stereo not shown) [Dex-Vi, bis(3-trimethylammonio-2-hydroxy)propyl viologen tetrachloride], the “capacity decay in RFB cycling” value (0.1 M, two weeks (1,200+ cycles)) is reported as “no observable decay”, the “capacity decay in RFB cycling” value (1.5 M, one month continual cycling) is reported as “no discernable decay” and the “Anolyte-limiting RFB Stability” value (Table 1) is reported as about 0% decay/year. The “RFB Viologen Molarity (1e^−)” value (Table 1) was 1.5.
